Source: US7579019B2, “Pharmaceutical carrier device suitable for delivery of pharmaceutical compounds to mucosal surfaces” (priority 1997, dated 2009)

Experiment: systemic availability study in dogs, testosterone, RIA method (Example 40)
Format: in vivo
Conditions: female, bred hound, dog, plasma, other: buccal (film disc applied to the buccal mucosa), 0.8 mg per disc, mean of three dogs, buccal ½ inch disc of Example 39 film, 0.8 mg testosterone per disc, read-out: systemic plasma level, Mean
Excerpt: The films obtained via Examples 38 and 39 are die-cut in ½ inch diameter discs to be characterized and to be used for a systemic availability study in three dogs (20-25 kg spayed female bred hounds). One disc of the film to be evaluated is applied to the inside of the mouth on the buccal mucosa. A slight pressure is applied for 10 seconds. Then, the oral cavity is examined to assure adherence of the film to the mucosa and over the course of the study, to monitor the erosion of the discs. Using an indwelling jugular catheter, blood samples are collected at specific intervals. The serum is characterized by an ELISA assay in the case of albuterol sulfate and by an RIA method for the testosterone study.
After application of ½ inch diameter discs, systemic plasma levels obtained at different intervals are given in nanograms per milliliter for the mean of the three dogs.

C[C@]12CC[C@H]3[C@@H](CCC4=CC(=O)CC[C@@]43C)[C@@H]1CC[C@@H]2O [testosterone]
concentration at 0 min (time 0 minutes): 0 ng/mL | concentration at 5 min (time 5 minutes): 2.21 ng/mL | concentration at 10 min (time 10 minutes): 4.68 ng/mL | concentration at 15 min (time 15 minutes): 3.81 ng/mL | concentration at 30 min (time 30 minutes): 2.87 ng/mL | concentration at 60 min (time 60 minutes): 3.73 ng/mL | concentration at 90 min (time 90 minutes): 4.82 ng/mL | concentration at 120 min (time 120 minutes): 7.14 ng/mL | concentration at 150 min (time 150 minutes): 3.2 ng/mL | concentration at 180 min (time 180 minutes): 0.62 ng/mL | concentration at 240 min (time 240 minutes): 0.18 ng/mL | concentration at 360 min (time 360 minutes): 0.12 ng/mL | concentration at 480 min (time 480 minutes): 0.02 ng/mL | concentration at 720 min (time 720 minutes): 0.01 ng/mL
